Experimental data: US11535630B2, “Apelin receptor (APJ) agonists and uses thereof” (Research Triangle Institute, priority 2015, dated 2022)
Like-named read-outs stand apart in the source and are kept apart here.

Assays:
[1] = Caco-2 cellular uptake / permeability assay (A-to-B, B-to-A); type: in vitro ADME; details: human, Caco-2, pH 7.4
Description: 5.3. Cellular Uptake Assay
Caco-2 cells (clone C2BBe1) were obtained from American Type Culture Collection (Manassas, Va,). Cell monolayers were grown to confluence on collagen-coated, microporous, polycarbonate membranes in 12-well Costar Transwell plates. Details of the plates and their certification are shown below. The permeability assay buffer was Hanks' balanced salt solution (HBSS) containing 10 mM HEPES and 15 mM glucose at a pH of 7.4. The buffer in the receiver chamber also contained 1% bovine serum albumin. The dosing solution concentration was 5 μM for each test article in the assay buffer. Cell monolayers were dosed on the apical side (A-to-B) or basolateral side (B-to-A) and incubated at 37° C. with 5% CO2 in a humidified incubator. Samples were taken from the donor and receiver chambers at 120 minutes. Each determination was performed in duplicate. After the experiment, all assay buffers were removed from the inserts. Cell monolayers were dosed with blank 500 μM lucifer yellow on the A-to-B side and blank HBSS on the B-to-A side and incubated at 37° C. Samples were taken from the B-to-A side at 60 minutes. The flux of lucifer yellow was measured for each monolayer to ensure no damage was inflicted to the cell monolayers during the flux period. All samples were analyzed by LC-MS/MS using electrospray ionization.
Where, dCr/dt is the slope of the cumulative concentration in the receiver compartment versus time in μM s^−1;
Vr is the volume of the receiver compartment in cm^3;
Vd is the volume of the donor compartment in cm^3;
CA is the average of the nominal dosing concentration and the measured 120-minute donor concentration in μM;
CN is the nominal concentration of the dosing solution in μM;
Cr^final is the cumulative receiver concentration in μM at the end of the incubation period;
Cd^final is the concentration of the donor in μM at the end of the incubation period.
Efflux ratio (ER) is defined as Papp (B-to-A)/Papp (A-to-B).

[2] = target: T1, apelin receptor (APJ) (Homo sapiens, UniProt P35414); assay: In vitro apelin agonist activity (methods of Giddings et al., Apelin-13 as positive control); type: cell-based
T1 sequence (P35414 1-380): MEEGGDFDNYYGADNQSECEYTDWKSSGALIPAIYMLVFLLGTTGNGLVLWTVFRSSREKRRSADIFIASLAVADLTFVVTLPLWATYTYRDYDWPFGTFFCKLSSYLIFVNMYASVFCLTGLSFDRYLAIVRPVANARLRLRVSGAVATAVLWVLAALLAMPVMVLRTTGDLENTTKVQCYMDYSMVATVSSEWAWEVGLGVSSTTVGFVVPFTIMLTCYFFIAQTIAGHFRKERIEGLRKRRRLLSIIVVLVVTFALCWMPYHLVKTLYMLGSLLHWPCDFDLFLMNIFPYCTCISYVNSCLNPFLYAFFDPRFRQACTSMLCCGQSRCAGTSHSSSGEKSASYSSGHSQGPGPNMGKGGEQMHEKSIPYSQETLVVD
Text: Characterization of the Apelin Agonist Activity of the Compounds
1:39-47, the contents of which are hereby incorporated by reference in its entirety. Using the methods described in Giddings et al. and Apelin-13 as a positive control.

[3] = system: male Sprague-Dawley rats; assay: In vivo blood pressure lowering in conscious telemetered rats, oral gavage; design: species or system rat; details: for Diastolic blood pressure, 2-5 h mean change from baseline / MAP, 2-5 h mean change from baseline / Systolic blood pressure, 2-5 h mean change from baseline: rat; for Effect on blood pressure (in words): oral gavage 7.5, 15 or 30 mg/kg, male Sprague-Dawley rats
Description: In Vivo Blood Pressure Lowering Activity of the Compounds
Select compounds were evaluated for their effects upon oral administration on hemodynamic changes, including blood pressure reduction, in conscious, telemetered male Sprague-Dawley rats. Apelin peptides are known to lower blood pressure, e.g., Tatemoto, K., et.al. Regul. Pept. 2001, 99, 87-92.
Animals were approximately 7-9 weeks of age and weighed between 247 g to 263 g just prior to surgery. Dose levels administered were 7.5, 15 or 30 mg/kg, dose volumes were 10 mL/kg, and dose route of administration was oral gavage. Animals were assigned to a crossover experimental treatment schedule as shown below.
Collected data included systolic, diastolic, and mean arterial blood pressure (MAP). Data collection time points were for pre-dose baseline approximately 48 h (prior to treatment 1) or approximately 24 h (prior to treatment 2-4) for 10 sec every 2 min. Data collection post-dose was collected through approximately 24 h (data collected for 10 sec every 2 min) per treatment. Resulting data is presented below as the 2-5 h mean change from baseline in mmHg.

[4] = apelin agonist potency as listed in Table 3 (Cellular Uptake Results), read-out: EC50
[5] = in vitro apelin agonist activity, methods of Giddings et al., Apelin-13 as positive control, read-out: EC50 (nM) Ave

## COc1cccc(OC)c1-c1cc(C(=O)N[C@@H](CCN2CCC(F)(F)CC2)CC(=O)NC2CCC2)nn1C1CCCC1 [compound 335, (3S)-N-cyclobutyl-3-{[1-cyclopentyl-5-(2,6-dimethoxyphenyl)-1H-pyrazol-3-yl]formamido}-5-(4,4-difluoropiperidin-1-yl)pentanamide]
[1]
  efflux ratio at 120 min, 5 μM: 1
[2]; [4]
  EC50: 63 nM
[2]; [5]
  EC50: 63 nM

## COc1cccc(OC)c1-c1cc(C(=O)N[C@@H](CCN2CCCC(F)(F)C2)CC(=O)NC2CCC2)nn1C1CCCC1 [compound 348, (3S)-N-cyclobutyl-3-{[1-cyclopentyl-5-(2,6-dimethoxyphenyl)-1H-pyrazol-3-yl]formamido}-5-(3,3-difluoropiperidin-1-yl)pentanamide]
[1]
  efflux ratio at 120 min, 5 μM: 2.1
[2]; [4]
  EC50: 15 nM
[2]; [5]
  EC50: 15 nM

## CCc1ccccc1-c1cc(C(=O)N[C@@H](CCN2CCCCC2)CC(=O)NC2CCC2)nn1C1CCCC1 [compound 363, (3S)-N-cyclobutyl-3-{[1-cyclopentyl-5-(2-ethylphenyl)-1H-pyrazol-3-yl]formamido}-5-(piperidin-1-yl)pentanamide]
[1]
  efflux ratio at 120 min, 5 μM: 3.6
[2]; [4]
  EC50: 44 nM
[2]; [5]
  EC50: 44 nM

## COc1cccc(OC)c1-c1cc(C(=O)N[C@@H](CCN2CCCC(F)(F)C2)CC(=O)Nc2nccs2)nn1C1CCCC1 [compound 384, (3S)-3-{[1-cyclopentyl-5-(2,6-dimethoxyphenyl)-1H-pyrazol-3-yl]formamido}-5-(3,3-difluoropiperidin-1-yl)-N-(1,3-thiazol-2-yl)pentanamide]
[1]
  efflux ratio at 120 min, 5 μM: 1.7
[2]; [4]
  EC50: 15 nM
[2]; [5]
  EC50: 15 nM

## CCc1ccccc1-c1cc(C(=O)N[C@@H](CCN2CCCC(F)(F)C2)CC(=O)Nc2nccs2)nn1C1CCCC1 [compound 410, (3S)-3-{[1-cyclopentyl-5-(2-ethylphenyl)-1H-pyrazol-3-yl]formamido}-5-(3,3-difluoropiperidin-1-yl)-N-(1,3-thiazol-2-yl)pentanamide]
[1]
  efflux ratio at 120 min, 5 μM: 1
[2]; [4]
  EC50: 7 nM
[2]; [5]
  EC50: 7 nM

## Cl.O=C(O)C[C@H](CCN1CCCC(F)(F)C1)NC(=O)c1cc(-c2ccccc2C(F)(F)F)n(C2CCCC2)n1 [compound 423, (3S)-3-({1-cyclopentyl-5-[2-(trifluoromethyl)phenyl]-1H-pyrazol-3-yl}formamido)-5-(3,3-difluoropiperidin-1-yl)pentanoic acid]
[3]; 7.5 mg/kg oral gavage
  Diastolic blood pressure, 2-5 h mean change from baseline: −9.9 mmHg
  MAP, 2-5 h mean change from baseline: −10.0 mmHg
  Systolic blood pressure, 2-5 h mean change from baseline: −13.0 mmHg
[3]; 15 mg/kg oral gavage
  Diastolic blood pressure, 2-5 h mean change from baseline: −7.3 mmHg
  MAP, 2-5 h mean change from baseline: −8.4 mmHg
  Systolic blood pressure, 2-5 h mean change from baseline: −9.8 mmHg
[3]; 30 mg/kg oral gavage
  Diastolic blood pressure, 2-5 h mean change from baseline: −8.3 mmHg
  MAP, 2-5 h mean change from baseline: −9.3 mmHg
  Systolic blood pressure, 2-5 h mean change from baseline: −10.7 mmHg
[3]
  Effect on blood pressure (in words): mild sustained decrease in blood pressure
[2]; [5]
  EC50: 35 nM

## O=C(N[C@@H](CCN1CCCC(F)(F)C1)Cc1nnn[nH]1)c1cc(-c2ccccc2C(F)(F)F)n(C2CCCC2)n1 [compound 551, 1-cyclopentyl-N-[(2S)-4-(3,3-difluoropiperidin-1-yl)-1-(1H-1,2,3,4-tetrazol-5-yl)butan-2-yl]-5{2-(trifluoromethyl)phenyl]-1H-pyrazole-3-carboxamide]
[3]; 7.5 mg/kg oral gavage
  Diastolic blood pressure, 2-5 h mean change from baseline: −4.3 mmHg
  MAP, 2-5 h mean change from baseline: −4.5 mmHg
  Systolic blood pressure, 2-5 h mean change from baseline: −6.6 mmHg
[3]; 15 mg/kg oral gavage
  Diastolic blood pressure, 2-5 h mean change from baseline: −7.3 mmHg
  MAP, 2-5 h mean change from baseline: −8.5 mmHg
  Systolic blood pressure, 2-5 h mean change from baseline: −9.6 mmHg
[3]; 30 mg/kg oral gavage
  Diastolic blood pressure, 2-5 h mean change from baseline: −8.4 mmHg
  MAP, 2-5 h mean change from baseline: −9.8 mmHg
  Systolic blood pressure, 2-5 h mean change from baseline: −11.3 mmHg
[3]
  Effect on blood pressure (in words): dose-dependent, mild sustained decrease in blood pressure
[2]; [5]
  EC50: 25 nM

## O=C(N[C@@H](CCN1C(=O)CCCC1=O)Cc1nnn[nH]1)c1cc(-c2ccccc2C(F)(F)F)n(C2CCCC2)n1 [compound 655, 1-cyclopentyl-N-[(2S)-4-(2,6-dioxopiperidin-1-yl)-1-(1H-1,2,3,4-tetrazol-5-yl)butan-2-yl]-5-[2-(trifluoromethyl)phenyl]-1H-pyrazole-3-carboxamide]
[2]; [5]
  EC50: 66 nM
